# Where a SMILES comes first, the peptide text is derived from it. [ ]: non-standard residue; d: D form.
# Key:
# [1] = test system: hTau^2N4R aggregates in Elav/hTau^2N4R flies; test: AFM of insoluble Tau fraction from fly heads; type: in vivo, Drosophila melanogaster; conditions: 6 weeks of treatment, 0.08 µM inhibitor (Figure 6 legend), insoluble Tau prep, n = 3, p = 0.0045
# Method: […] Decapitated fly heads were homogenized in TBS/sucrose buffer (50 mM Tris‐HCl pH 7.4, 175 mM NaCl, 1 M sucrose, 5 mM EDTA and protease inhibitor cocktail). Samples were spun for 2 min at 1000 g, retaining the supernatant, which was then spun at 100,000 g for 30 min at 4°C. The supernatant included the aqueous soluble fraction and monomeric Tau “NS1.” The pellet was re‐suspended at ∼20°C–25°C in 5% SDS/TBS buffer (50 mM Tris‐HCl pH 7.4, 175 mM NaCl, 5% SDS, and protease inhibitor cocktail) and spun at 100,000 g for 30 at 25°C. The pellet “NP1” was washed three times with water to remove the remaining SDS from the fractionation and re‐suspended in 1X PBS. A solid glass bead was added to each sample and incubated overnight in a rotor at 4°C. AFM: NP1 (5 µL) was diluted in 1X PBS and 25 µL of the sample was placed in a freshly cleaved 10 mm mica disc. These were incubated at ∼20°C–25°C for 5 min. Samples were rinsed four times with ultrapure water and dried with compressed air. Samples were imaged in the air with a digital multimode Nanoscope IV AFM operating in tapping mode with an aluminum‐coated non‐contact/Tapping mode probe (resonance frequency 320 kHz and force constant 42 N/m). The images are representative of the sample and were taken at random points on the sample with a scan rate of 1–2 Hz. […] Quantification of aggregates was carried out using ImageJ software.
# Tau^Δ1‐250 = target: T1, Tau^Δ1‐250 (Homo sapiens, UniProt P10636); test: ThT fluorescence, heparin-induced aggregation of Tau^Δ1‐250; type: biochemical
# T1 construct: Tau^Δ1‐250 (an aggregate prone truncated version of full‐length Tau); made in house; host or cells: E. coli BL21(DE3)
# Method: Fluorescence was measured (λex = 442 nm, λem = 483 nm), and data were normalized. […] The addition of inhibitor to the growth phase was controlled by adding an equivalent volume of buffer alone.
# Experiments were conducted in triplicate and error bars were reported as standard deviation. Statistical analysis: p > 0.05, *p ≤ 0.05, **p ≤ 0.01, ***p ≤ 0.001.
# [2] = test system: Drosophila expressing hTau^2N4R in retinal photoreceptors; test: Drosophila eye experiments (GMR‐hTau^2N4R rough eye, eye size); type: in vivo, Drosophila melanogaster
# Method: Drosophila eye experiments: UAS-Tau^2N4R flies (BDSC_51363) were recombined to GMR-GAL4 (BDSC_8605) driver to generate stable GMR-hTau^2N4R lines (BDSC_51361). GMR-GAL4 was used as the “healthy” control. Progeny was reared on standard fly food supplemented with RI-AG03; 0.08, 0.8, 20, and 40 μM at 25°C. As controls, Tau, and driver-alone flies were incubated without the inhibitor. Freshly eclosed flies were monitored daily using a light microscope and 1-day-old live flies were imaged (n = 5/treatment) and processed on ImageJ to measure eye width. Ommaditial disorderliness quantification was done using Flynotyper ImageJ plugin.[48] Quantification of rough eye phenotype: Quantitative analysis of the total distance ommatidial disorderliness index of all stable ommatidia [Odld] was performed using the ImageJ plugin “Flynotyper.”[48] Analysis was performed using images taken by light microscope, and 150 ommatidia were considered and ranked by stability and distance to the center. Between four and five animals per genotype were analyzed. Scanning Electron Microscopy (SEM): Flies were euthanized, fixed in 2.5% glutaraldehyde in PBS, and had three 5-min washes in PBS. Samples were dehydrated for 30-min at each ethanol concentration: 50%, 70%, 80%, 90%, and 100%. Samples were transferred to hexamethyldisilazane for two 30-min changes, after which hexamethyldisilazane was sublimated overnight. […]
# T1 sequence (P10636 568-758, stated change not applied): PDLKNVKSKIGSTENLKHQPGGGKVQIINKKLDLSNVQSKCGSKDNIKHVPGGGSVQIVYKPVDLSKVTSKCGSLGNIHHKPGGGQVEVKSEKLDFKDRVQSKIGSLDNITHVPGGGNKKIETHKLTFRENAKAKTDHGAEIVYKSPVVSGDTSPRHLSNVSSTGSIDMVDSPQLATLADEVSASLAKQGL
compound,measurement,setting,value
CC[C@@H](C)[C@@H](NC(=O)[C@@H](CCCCNC(C)=O)NC(=O)[C@@H](Cc1ccc(O)cc1)NC(=O)[C@@H](CCCCN)NC(=O)[C@H]1CCCN1C(=O)CNC(=O)[C@@H](CCCNC(=N)N)NC(=O)[C@@H](CCCNC(=N)N)NC(=O)[C@@H](CCCNC(=N)N)NC(=O)[C@@H](CCCNC(=N)N)NC(=O)[C@@H](CCCNC(=N)N)NC(=O)[C@@H](CCCNC(=N)N)NC(=O)[C@@H](CCCNC(=N)N)NC(=O)[C@@H](CCCNC(=N)N)NC(C)=O)C(=O)N[C@H](CCC(N)=O)C(=O)N[C@@H](C(=O)NCC(=O)N[C@H](CCCNC(=N)N)C(N)=O)C(C)C [RI‐AG03] (Ac-[dR][dR][dR][dR][dR][dR][dR][dR]G[dP][dK][dY][dK](Ac)[dI][dQ][dV]G[dR]-NH2),reduction in oligomeric and fibrillar Tau species (AFM),[1],73%
same,IC50,Tau^Δ1‐250,7.83 µM
same,inhibition of Tau^Δ1‐250 aggregation,"Tau^Δ1‐250; ThT end-point after 24 h, 37°C, 20 µM Tau^Δ1‐250, 20 µM peptide (equimolar), 5 µM heparin, 30 mM Tris, 1 mM DTT, 15 µM ThT, pH 7.4, triplicate",~94%
same,effect when added during the growth phase of Tau^Δ1‐250 aggregation,"Tau^Δ1‐250; ThT kinetics 12 h, 20 µM Tau^Δ1‐250, 20 µM RI‐AG03 added 1 h after aggregation was initiated",halted any further aggregation
same,eye size of hTau^2N4R transgenics,"[2]; GMR‐hTau^2N4R flies reared on food with 40 µM RI‐AG03, 25°C, versus untreated, n = 5/treatment",significantly improved
same,"ommatidial disorganization (Odld, Flynotyper)","[2]; GMR‐hTau^2N4R flies treated with RI‐AG03, n=4-5/condition",significantly improved

# — article PMC11567856, “A novel peptide‐based tau aggregation inhibitor as a potential therapeutic for Alzheimer's disease and other tauopathies” (Alzheimer's & Dementia, 2024)
